Measurements as given in patent US20260078108A1, “SOLID FORMS OF A ROCK INHIBITOR” (REDX PHARMA PLC, priority 2022, published 2026).

Tests used:
[1] = target: T1, MAO-A (Rattus norvegicus, UniProt P21396); experiment: CEREP panel MAO-A (antagonist radioligand); assay type: binding; conditions: HCl salt tested
T1 sequence (P21396 1-526): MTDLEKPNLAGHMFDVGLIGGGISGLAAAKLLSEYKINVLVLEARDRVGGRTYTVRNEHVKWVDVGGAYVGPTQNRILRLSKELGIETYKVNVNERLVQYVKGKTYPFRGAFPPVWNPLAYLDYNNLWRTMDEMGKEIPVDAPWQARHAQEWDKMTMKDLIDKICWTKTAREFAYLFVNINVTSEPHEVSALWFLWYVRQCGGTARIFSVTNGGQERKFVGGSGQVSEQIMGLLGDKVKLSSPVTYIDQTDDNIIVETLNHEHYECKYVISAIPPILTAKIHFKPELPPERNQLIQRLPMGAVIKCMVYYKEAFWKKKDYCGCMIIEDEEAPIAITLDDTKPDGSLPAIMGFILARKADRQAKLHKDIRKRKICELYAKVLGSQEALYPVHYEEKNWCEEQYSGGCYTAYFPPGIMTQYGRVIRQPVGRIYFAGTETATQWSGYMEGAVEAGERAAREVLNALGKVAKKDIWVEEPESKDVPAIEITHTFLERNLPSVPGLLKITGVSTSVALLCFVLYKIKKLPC
Excerpt: (§1) The use of in vitro pharmacological screening against a diverse range of targets (receptors, ion channels, enzymes and transporters) is used to identify undesirable off-target activity that may cause adverse drug reactions in humans. Screening panels (e.g. SafetyScreen44™ Panel, Eurofins) comprise a selection of off-targets linked with known issues in humans that could hinder or halt the development of drug candidates or market withdrawal if discovered after a drug is approved. The HCl salts of the S enantiomer and the R enantiomer of compound A were tested against a panel of such targets.
(§2) The tests were carried out according to the methods described in the following tables and indicated literature references.

[2] = target: T2, M1 (h) (Homo sapiens, UniProt P11229); experiment: CEREP panel M1 (h) agonist effect, intracellular Ca2+ fluorimetry; assay type: cell-based; conditions: HCl salt tested, CHO cells
T2 construct: expressed in transfected cells; host or cells: CHO cells
T2 sequence (P11229 1-460): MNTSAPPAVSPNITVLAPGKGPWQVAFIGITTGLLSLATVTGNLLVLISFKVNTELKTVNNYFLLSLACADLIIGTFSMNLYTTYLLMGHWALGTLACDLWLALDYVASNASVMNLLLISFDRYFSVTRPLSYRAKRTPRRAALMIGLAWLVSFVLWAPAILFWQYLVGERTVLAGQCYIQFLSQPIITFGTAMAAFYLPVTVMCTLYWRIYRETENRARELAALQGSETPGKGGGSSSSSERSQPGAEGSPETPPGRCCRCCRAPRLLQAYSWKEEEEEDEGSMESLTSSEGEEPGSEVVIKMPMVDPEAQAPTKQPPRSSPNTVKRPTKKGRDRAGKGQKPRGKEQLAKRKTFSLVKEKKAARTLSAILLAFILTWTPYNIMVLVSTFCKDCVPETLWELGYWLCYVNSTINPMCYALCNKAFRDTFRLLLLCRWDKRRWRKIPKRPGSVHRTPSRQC
Excerpt: as §1, §2

[3] = target: PKCeta (Homo sapiens, UniProt P24723); experiment: Kinase panel 33P-ATP filter assay, PKCeta; assay type: biochemical; conditions: HCl salt tested; ATP Conc. 15 μM (Km); read-out: Compound IC50 (nM) PKCeta
Chain of PKCeta (P24723 whole entry): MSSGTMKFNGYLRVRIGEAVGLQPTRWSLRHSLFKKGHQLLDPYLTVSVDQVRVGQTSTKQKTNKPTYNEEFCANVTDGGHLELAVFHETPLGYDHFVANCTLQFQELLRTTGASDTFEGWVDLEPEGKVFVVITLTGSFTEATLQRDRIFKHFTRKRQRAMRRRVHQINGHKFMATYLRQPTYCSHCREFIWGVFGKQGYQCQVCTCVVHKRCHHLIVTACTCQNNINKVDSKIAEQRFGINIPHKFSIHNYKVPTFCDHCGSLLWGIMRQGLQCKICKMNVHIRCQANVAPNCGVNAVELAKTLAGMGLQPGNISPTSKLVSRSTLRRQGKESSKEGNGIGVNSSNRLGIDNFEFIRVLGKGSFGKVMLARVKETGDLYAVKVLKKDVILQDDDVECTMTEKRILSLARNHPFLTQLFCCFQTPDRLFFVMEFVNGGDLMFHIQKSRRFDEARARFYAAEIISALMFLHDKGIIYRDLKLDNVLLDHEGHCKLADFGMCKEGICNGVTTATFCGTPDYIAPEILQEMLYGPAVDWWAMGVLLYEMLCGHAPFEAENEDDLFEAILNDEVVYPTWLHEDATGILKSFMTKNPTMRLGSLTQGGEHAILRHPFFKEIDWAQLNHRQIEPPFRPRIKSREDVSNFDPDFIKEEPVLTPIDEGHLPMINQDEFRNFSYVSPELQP
Method: (§3) The HCl salts of S enantiomer and the R enantiomer of compound A were tested against a panel of kinases.
(§4) Compounds were received as powder and resuspended to 10 mM DMSO stock. Compounds were tested in 10-dose IC50 mode with a 3-fold serial dilution starting at 10 μM. Control compound, staurosporine, was tested in 10-dose IC50 mode with 4-fold serial dilution starting at 20 μM.
(§5) Reaction Conditions: Buffer Conditions: 20 mM HEPES ((4-(2-hydroxyethyl)-1-piperazineethanesulfonic acid; pH 7.5), 10 mM MgCl2, 1 mM EGTA (Ethyleneglycol-bis(p-aminoethyl)-N,N,N′,N′-tetraacetic Acid), 0.01% Brij35, 0.02 mg/ml BSA (Bovine serum albumin), 0.1 mM Na3VO4, 2 mM DTT (Dithiothreitol), 1% DMSO. Reaction Procedure: 1. Prepare indicated substrate in freshly prepared reaction buffer. 2. Deliver required cofactors to the substrate solution above. 3. Deliver indicated kinase into the substrate solution and mix gently. 4. Deliver compounds in DMSO into the kinase reaction mixture utilizing acoustic technology (Echo550). 5. Deliver ^33P-ATP (specific activity 0.01 μCi/μl final) into the reaction mixture to initiate the reaction. 6. Incubate kinase reaction for 120 minutes at room temperature. 7. […] Data Analysis: Kinase activity data were expressed as the percent remaining kinase activity in test samples compared to vehicle (dimethyl sulfoxide) reactions. […]

[4] = target: T3, Norepinephrine transporter (Homo sapiens, UniProt P23975); experiment: CEREP panel norepinephrine transporter uptake (h), [3H]NE incorporation; assay type: cell-based; conditions: HCl salt tested; [3H]NE incorporation into cells
T3 construct: expressed in transfected cells
T3 sequence (P23975 whole entry): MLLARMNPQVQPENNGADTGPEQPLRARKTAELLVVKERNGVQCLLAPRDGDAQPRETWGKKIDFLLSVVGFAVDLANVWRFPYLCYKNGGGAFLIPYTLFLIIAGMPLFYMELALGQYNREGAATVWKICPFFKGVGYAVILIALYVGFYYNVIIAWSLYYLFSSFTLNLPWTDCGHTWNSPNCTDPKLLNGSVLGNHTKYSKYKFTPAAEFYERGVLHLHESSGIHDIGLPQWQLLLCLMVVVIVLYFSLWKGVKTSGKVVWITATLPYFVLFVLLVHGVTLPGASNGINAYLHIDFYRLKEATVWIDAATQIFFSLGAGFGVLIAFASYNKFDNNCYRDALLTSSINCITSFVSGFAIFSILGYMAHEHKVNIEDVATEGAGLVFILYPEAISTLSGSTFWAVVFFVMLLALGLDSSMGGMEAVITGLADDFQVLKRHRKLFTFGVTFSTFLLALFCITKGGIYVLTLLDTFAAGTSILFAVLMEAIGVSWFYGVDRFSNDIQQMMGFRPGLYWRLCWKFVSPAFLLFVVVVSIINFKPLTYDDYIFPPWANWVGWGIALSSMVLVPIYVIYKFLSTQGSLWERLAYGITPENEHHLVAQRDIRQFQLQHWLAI
Excerpt: as §1, §2

[5] = target: T4, CB2 (h) (Homo sapiens, UniProt P34972); experiment: CEREP panel CB2 (h) antagonist effect, cAMP HTRF; assay type: cell-based; conditions: HCl salt tested; CHO cells, WIN 55212-2 (3 nM)
T4 construct: expressed in transfected cells; host or cells: CHO cells
T4 sequence (P34972 whole entry): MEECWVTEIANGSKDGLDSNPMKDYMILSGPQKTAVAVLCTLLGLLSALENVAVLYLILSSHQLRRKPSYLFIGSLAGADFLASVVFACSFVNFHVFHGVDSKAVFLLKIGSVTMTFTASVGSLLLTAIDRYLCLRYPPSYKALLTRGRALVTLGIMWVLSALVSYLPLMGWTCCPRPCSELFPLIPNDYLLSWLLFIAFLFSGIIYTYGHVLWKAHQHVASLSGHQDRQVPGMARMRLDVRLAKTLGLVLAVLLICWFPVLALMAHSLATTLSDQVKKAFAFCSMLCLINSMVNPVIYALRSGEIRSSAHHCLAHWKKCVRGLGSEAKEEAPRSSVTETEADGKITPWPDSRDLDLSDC
Excerpt: as §1, §2

[6] = target: PKCtheta (Homo sapiens, UniProt Q04759); experiment: Kinase panel 33P-ATP filter assay, PKCtheta; assay type: biochemical; conditions: HCl salt tested; ATP Conc. 30 μM (Km); read-out: Compound IC50 (nM) PKCtheta
Chain of PKCtheta (Q04759 whole entry): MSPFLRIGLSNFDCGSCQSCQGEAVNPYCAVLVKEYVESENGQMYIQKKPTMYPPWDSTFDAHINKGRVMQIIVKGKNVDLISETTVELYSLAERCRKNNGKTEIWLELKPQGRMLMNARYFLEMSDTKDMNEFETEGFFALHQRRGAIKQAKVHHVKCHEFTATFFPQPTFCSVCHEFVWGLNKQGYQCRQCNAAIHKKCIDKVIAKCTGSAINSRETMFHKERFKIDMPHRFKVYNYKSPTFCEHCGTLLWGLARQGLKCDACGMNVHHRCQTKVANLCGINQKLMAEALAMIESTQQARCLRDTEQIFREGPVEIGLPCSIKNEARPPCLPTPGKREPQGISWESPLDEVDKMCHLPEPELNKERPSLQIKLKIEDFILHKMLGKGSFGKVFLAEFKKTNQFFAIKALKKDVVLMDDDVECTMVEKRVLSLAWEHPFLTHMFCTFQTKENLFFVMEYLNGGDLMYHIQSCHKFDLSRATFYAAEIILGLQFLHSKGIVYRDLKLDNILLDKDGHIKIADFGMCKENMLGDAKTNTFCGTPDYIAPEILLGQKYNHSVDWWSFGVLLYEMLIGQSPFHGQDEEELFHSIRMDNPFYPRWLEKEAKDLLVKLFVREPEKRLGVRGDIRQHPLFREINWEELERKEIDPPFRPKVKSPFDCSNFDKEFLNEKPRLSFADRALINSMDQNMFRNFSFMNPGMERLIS
Method: as §3, §4, §5

[7] = target: T2, M1 (h); experiment: CEREP panel M1 (h) antagonist effect, intracellular Ca2+ fluorimetry; assay type: cell-based; conditions: HCl salt tested; CHO cells, acetylcholine (10 nM)
Excerpt: as §1, §2

SMILES | IC50 [1] [nM] | M1 (h) (agonist effect) (EC50) [2] | IC50 [3] [nM] | IC50 [4] [nM] | IC50 [5] [nM] | IC50 [6] [nM] | IC50 [7] [nM] | CB2 (h) (antagonist effect) (IC50) [5]
NCc1ccc(C(=O)Nc2ccncc2F)cc1-c1cccc(C(=O)Nc2ccc(SC[C@@H]3CCOC3=O)cc2)c1 [R-enantiomer] | 4300 | Inactive | < 0.5 | 8900 | 38000 | 4.4 | 770 | –
NCc1ccc(C(=O)Nc2ccncc2F)cc1-c1cccc(C(=O)Nc2ccc(SC[C@H]3CCOC3=O)cc2)c1 [S-enantiomer] | 820 | Inactive | 0.9 | 21000 | – | 9.9 | > 30000 | Inactive
